# Test system: RSK-substrates (RXXpS/T phospho-peptides)
# Assay: Phospho-proteomics with anti-RXXpS/T enrichment in IFN-γ-stimulated macrophages
# Assay type: cell-based, human
# Conditions: BI-D1870 +IFNg, IP:RXXpS/T, DMSO = 1.00
# Procedure: (FIG. 6A) Scheme of phospho-proteomics. Human PBMC-derived macrophages were treated with DMSO or BI-D1870 for two hours followed by IFN-γ stimulation for subsequent proteolysis and phospho-peptide enrichment using the anti-RXXpS/T antibody strategy. […] N=2 donors. […] The average shortest distance of the same number of randomly selected genes to disease genes was calculated for N=250 realizations in order to compare the average shortest distance value to random expectation. Empirical p-values were calculated based on 100 degree-preserved randomizations of the first neighbor networks.
# Phospho-proteomics. Phospho-peptide immunoaffinity purification from cell lysates was performed as described previously (36), with minor modifications. Human PBMC-derived macrophages were pretreated with DMSO or BI-D1870 followed by IFN-γ stimulation. Cell lysates (8.0 mg) were proteolyzed (Lys-C, Wako Chemicals) using in-solution urea strategy detailed previously (34). Trifluoroacetic acid (TFA) was added to protein digests to a final concentration of 1%, precipitate was removed by centrifugation, and digests were loaded onto Sep-Pak C18 columns (Waters) equilibrated with 0.1% TFA. Columns were washed with 0.1% TFA and wash buffer (0.1% TFA, 5% acetonitrile). A peptide fraction was obtained by elution with elution buffer (0.1% TFA, 40% acetonitrile). The peptide eluate was frozen overnight and lyophilize frozen peptide solution for 2 days. Peptides were dissolved in 1.4 mL of IAP buffer (Cell signaling Technology). Insoluble matter was removed by centrifugation. […] The immobilized antibody beads were washed three times with 1 ml IAP buffer and three times with 1 ml water, all at 4° C. Peptides were eluted from beads by incubation with 55 μl of 0.15% TFA at room temperature for 10 minutes (eluate 1), followed by a wash of the beads (eluate 2) with 50 μl of 0.15% TFA. Both eluates were combined. The peptide solution was desalted using Oasis Hlb 1 cc columns (Waters), dried in a SpeedVac, resuspend with Trypsin solution, and digested overnight. After desalting using Oasis Hlb 1 cc columns, peptides were dried in a SpeedVac, and resuspend with 40 μl of 5% acetonitrile and 0.5% formic acid for subsequent analysis by liquid chromatography/mass spectrometry (LC/MS).
# Each peptide sample was analyzed four times: a full scan range of 350-1800 m/z and three gas phase separation scans—350-500 m/z, 500-700 m/z, and 700-1200 m/z in order to increase phospho-peptide signals.
# Phospho-proteomics and kinase assays. The MS/MS data were queried as above using a 10-ppm tolerance window in the MS1 search space, and a 0.02 Da fragment tolerance window for EThcD or HCD. Methionine oxidation, and phosphorylation of serine and threonine were set as variable modifications, and carbamidomethylation of cysteine residues was set as fixed modifications. High confidently assigned phospho-peptides were used for precursor ion area under the curve (AUC) quantification. The peptides that were detected in IgG conditions were considered as non-specific signals and excluded. The normalized precursor ion intensities were exported from PD2.1.
smiles,measurement,setting,value
CC(C)CCN1c2nc(Nc3cc(F)c(O)c(F)c3)ncc2N(C)C(=O)C1C (stereo not drawn) [BI-D1870],Intensity of phospho-peptide SLC20A1 S335 [R].ERLPSVDLK.[E],DMSO +IFNg = 1.51,0.51
same,Intensity of phospho-peptide LUC7L3 T238 [R].KRTEEPDRDER.[L],DMSO +IFNg = 1.55,1.03
same,Intensity of phospho-peptide STX7 S129 [R].ASSRVSGSFPEDSSK.[E],DMSO +IFNg = 1.60,0.67
same,Intensity of phospho-peptide AP1AR T228 [R].SKTEEDILR.[A],DMSO +IFNg = 1.67,0.80
same,Intensity of phospho-peptide AKAP13 T2471 [R].RAETFGGFDSHQMNASK.[G],DMSO +IFNg = 1.68,0.73
same,Intensity of phospho-peptide CLASP1 S646 [R].RQSSGSATNVASTPDNR.[G],DMSO +IFNg = 1.75,0.94
same,Intensity of phospho-peptide TRPM7 S1504 [R].RPSTEDTHEVDSK.[A],DMSO +IFNg = 1.75,0.73
same,Intensity of phospho-peptide SLC4A7 S407 [R].ENSTVDFSK.[VEG],DMSO +IFNg = 1.79,1.61
same,Intensity of phospho-peptide IFNGR1 T295 [R].SATLETKPESK.[Y],DMSO +IFNg = 1.83,0.77
same,Intensity of phospho-peptide RPS6 S235 [K].RRRLSSLRASTSK.[S],DMSO +IFNg = 1.86,0.74
same,Intensity of phospho-peptide REPS1 S650 [R].LKSEDELRPEVDEHTQK.[T],DMSO +IFNg = 1.91,0.94
same,Intensity of phospho-peptide REPS1 S650 [R].RLKSEDELRPEVDEHTQK.[T],DMSO +IFNg = 1.96,1.09
same,Intensity of phospho-peptide GPBP1 S49 [R].HNSSDGFDSAIGRPNGGNFGR.[K],DMSO +IFNg = 2.05,0.45
same,Intensity of phospho-peptide MYO1E T935 [R].RNTTQNTGYSSGTQNANYPVR.[A],DMSO +IFNg = 2.15,0.88
same,Intensity of phospho-peptide CHP1 T7 [R].ASTLLRDEELEEIKK.[E],DMSO +IFNg = 2.18,1.00
same,Intensity of phospho-peptide NDRG3 S338 [R].THSTSSSLGSGESPFSR.[S],DMSO +IFNg = 2.25,1.07
same,Intensity of phospho-peptide GPBP1 S49 [R].RHNSSDGFDSAIGRPNGGNFGR.[K],DMSO +IFNg = 2.28,1.00
same,Intensity of phospho-peptide NDRG1 S330 [R].TASGSSVTSLDGTR.[S],DMSO +IFNg = 2.29,1.88
same,Intensity of phospho-peptide STK11IP S398 [R].RASISEPSDTDPEPR.[T],DMSO +IFNg = 2.31,0.58
same,Intensity of phospho-peptide EIF4B S422 [R].TGSESSQTGTSTTSSR.[SN],DMSO +IFNg = 2.58,1.29
same,Intensity of phospho-peptide SPECC1L T838 [R].RSSTSSEPTPTVK.[T],DMSO +IFNg = 2.80,1.80
same,Intensity of phospho-peptide AKT1S1 T266 [R].LNTSDFQK.[L],DMSO +IFNg = 3.11,0.89
same,Intensity of phospho-peptide RPS6 S235; S236 [R].RLSSLRASTSK.[S],DMSO +IFNg = 3.46,1.65
same,Intensity of phospho-peptide FLNA S2152 [R].RAPSVANVGSHCDLSLK.[I],DMSO +IFNg = 3.67,1.32

# Source: patent US20210123061A1, “METHODS AND COMPOSITIONS FOR TREATING INFLAMMATORY DISEASE OR DISORDER” (THE BRIGHAM AND WOMEN'S HOSPITAL, INC., priority 2018, published 2021)
